Laboratory results taken from patent publication US12642812B2, “Nicotinamide mononucleotide derivatives and use thereof in the treatment and prevention of an antineoplastic-induced toxicity” (NUVAMID SA, priority 2020, dated 2026).

Experiments:
Assay type in all cases: in vivo, mice
[1] = system: doxorubicin-induced cardiotoxicity; assay: Heart weight in doxorubicin-induced cardiotoxicity model; settings: 5 days after DOX; for heart weight (effect of treatment): DOX 20 mg/kg mice, compound 180 mg/kg, vs DOX vehicle mice
Experimental: (§1) Cardiotoxicity was induced by a single intraperitoneal injection of doxorubicin (DOX) at 20 mg/kg. Doxorubicin was prepared at 2 mg/mL and volume of administration was 10 mL/Kg.
(§2) • Group 1: Vehicle (i.p.) • Group 2: Doxorubicin (20 mg/kg) • Group 3: Doxorubicin (20 mg/kg)+compound 001 180 mg/kg • Group 4: Doxorubicin (20 mg/kg)+compound 010 180 mg/kg • Group 5: Doxorubicin (20 mg/kg)+compound 011 180 mg/kg Group Repartition:
(§3) The treatment with compounds 001, 010 and 011 was initiated from 5 days before DOX injection once per day from […] to D0.
(§4) Mice were i.p treated with compounds 001, 010 and 01130 min before DOX injection.
(§5) Mice were i.p treated with compounds 001,010 and 011 for the duration of the experiment (D0 to D5) once per day. Last injection occurred 24 hours before sacrifice.
At D5, heart and tibia were collected.

[2] = system: doxorubicin-induced cardiotoxicity; assay: Survival rate in doxorubicin-induced cardiotoxicity model; settings: for survival rate (% of survival): DOX 20 mg/kg i.p. mice, compound 180 mg/kg i.p. once daily from 5 days before DOX to D5, 5 days after DOX
Experimental: The aim of the present study was to evaluate, the effects of i.p. administration of compounds 001, 010 and 011 at 180 mg/kg in the progression of a cardiotoxicity induced by doxorubicin.
as §1
Mortality rate was followed-up all along the experimental phase.
as §2
At D0, mice received DOX (20 mg/kg) by intraperitoneal route.
as §3, §4, §5
The survival rate was recorded every day until the end of the experiment (D5).

[3] = system: doxorubicin-induced cardiotoxicity; assay: Body weight in doxorubicin-induced cardiotoxicity model; settings: for body weight loss observed after doxorubicin administration (effect of treatment): DOX 20 mg/kg i.p. mice, compound 180 mg/kg i.p. daily, D5 vs before injection, vs DOX vehicle
Experimental: The treatment with compounds 001, 010 and 011 was initiated from 5 days before DOX injection once per day from D5 to D0.
The bodyweight was assessed at inclusion and at D5.

[4] = system: doxorubicin-induced cardiotoxicity; assay: Assessment of cardiac function by echocardiography in doxorubicin-induced cardiotoxicity model; settings: 5 days after DOX; for heart rate (effect of treatment, in words): vs DOX vehicle; for end-systolic LV volume (effect of treatment): vs doxorubicin vehicle group; for anterior and posterior wall thickness in systole (effect of treatment): compound 180 mg/kg
Experimental: Cardiotoxicity was induced by a single intraperitoneal injection of doxorubicin (DOX) at 20 mg/kg. Doxorubicin was prepared at 2 mg/mL and volume of administration was 10 mL/Kg. • Group 1: Vehicle (i.p.) • Group 2: […] Doxorubicin (20 mg/kg)+compound 001 180 mg/kg • Group 4: Doxorubicin (20 mg/kg)+compound 010 180 mg/kg • Group 5: Doxorubicin (20 mg/kg)+compound 011 180 mg/kg Group Repartition: […] Mice were i.p treated with compounds 001, 010 and 01130 min before DOX injection. Mice were i.p treated with compounds 001,010 and 011 for the duration of the experiment (D0 to D5) once per day. Last injection occurred 24 hours before sacrifice. Echocardiography (ECG) was performed 5 days after doxorubicin injection in anesthetized (isoflurane 1.5-2%) animals with non-invasive two-dimensional echocardiography (VF16-5 probe, Siemens, Acuson NX3 Elite). After removing hairs on the chest, numeric images of the heart will be obtained in both parasternal long-axis and short axis views. The following cardiac function were assessed during ECG: • Left ventricle (LV) end-systolic and end-diastolic inner diameter, • LV end-systolic and end-diastolic volume, • Fractional shortening; • Ejection fraction; • Heart Rate; and • Anterior and posterior wall thickness in Diastole and in systole.

[5] = system: doxorubicin-induced cardiotoxicity; assay: Plasmatic LDH biomarker in doxorubicin-induced cardiotoxicity model; settings: plasma, 5 days after DOX
Experimental: as §1, §2, §3, §4, §5
Retro-orbital blood collection was performed at the inclusion and at 1 and 5 days after the induction with DOX to assess biomarkers (especially LDH).
DOX mice were treated with compounds 001,010 and 011 (180 mg/kg) or vehicle. Plasmatic LDH (lactate dehydrogenase) was measured 5 days after doxorubicin injection.

[6] = DOX 20 mg/kg mice, compound 180 mg/kg i.p. daily
[7] = doxorubicin 20 mg/kg + vehicle vs control group
[8] = doxorubicin-treated mice (20 mg/kg, vehicle) vs control

NC(=O)c1ccc[n+]([C@@H]2O[C@H](COP(=O)([O-])OP(=O)([O-])OC[C@H]3O[C@H]([n+]4cccc(C(N)=O)c4)[C@H](O)[C@@H]3O)[C@@H](O)[C@H]2O)c1 [Compound 010] was tested, and the “heart weight (effect of treatment)” value [1] was “tended to increase”, the “survival rate (% of survival)” value [2] was 98% and the “body weight loss observed after doxorubicin administration (effect of treatment)” value (shortened to “body weight loss observed”) [3] was “significantly decreased”. The ejection fraction [4, 6] was 60.0±0.6%, the fractional shortening [4, 6] was “around 38%” and the heart rate [4, 6] was 470.1±18.8 bpm. The “heart rate (effect of treatment, in words)” value [4, 6] was “increased”, the “end-systolic LV volume (effect of treatment)” value [4, 6] was “reduced” and the “anterior and posterior wall thickness in systole (effect of treatment)” value ([4]; DOX 20 mg/kg mice) was “non-significant increases”.
With NC(=O)c1ccc[n+]([C@@H]2O[C@H](COP(=O)([O-])O)[C@@H](O)[C@H]2O)c1 [Compound 001, nicotinamide mononucleotide] the “survival rate (% of survival)” value [2] was 78%, the “decrease of LDH release / reduction in LDH levels” value ([5]; DOX 20 mg/kg mice, compound 180 mg/kg, vs DOX vehicle) was “more than 35%” and the “body weight loss observed” value [3] was “significantly decreased”. For the same compound, the ejection fraction [4, 6] was 56.9±0.6%, the fractional shortening [4, 6] was “around 38%” and the “heart rate (effect of treatment, in words)” value [4, 6] was “increased”. The “end-systolic LV volume (effect of treatment)” value [4, 6] was “reduced” and the “anterior and posterior wall thickness in systole (effect of treatment)” value ([4]; DOX 20 mg/kg mice) was “non-significant increases”.
With NC(=O)c1ccc[n+]([C@H]2O[C@H](COP(=O)([O-])OP(=O)([O-])OC[C@H]3O[C@H]([n+]4cccc(C(N)=O)c4)[C@H](O)[C@@H]3O)[C@@H](O)[C@H]2O)c1 [Compound 011] the “heart weight (effect of treatment)” value [1] was “tended to increase”, the “survival rate (% of survival)” value [2] was 100% and the “body weight loss observed” value [3] was “significantly decreased”. For the same compound, the ejection fraction [4, 6] was 58.2±0.5%, the fractional shortening [4, 6] was “around 38%” and the “heart rate (effect of treatment, in words)” value [4, 6] was “increased”. The “end-systolic LV volume (effect of treatment)” value [4, 6] was “reduced” and the “anterior and posterior wall thickness in systole (effect of treatment)” value ([4]; DOX 20 mg/kg mice) was “non-significant increases”.
COc1cccc2c1C(=O)c1c(O)c3c(c(O)c1C2=O)C[C@@](O)(C(=O)CO)C[C@@H]3O[C@H]1C[C@H](N)[C@H](O)[C@H](C)O1 [doxorubicin, reference compound] was tested, and the heart weight ([1]; doxorubicin 20 mg/kg + vehicle) was 102.3 ± 4.6 mg, the “mice died before the end of experimental protocol” value ([2]; doxorubicin 20 mg/kg i.p. mice treated with vehicle, up to D5) was about 50% and the “increase in LDH release compared to control group” value ([5]; doxorubicin 20 mg/kg + vehicle) was “more than 3 fold”. For the same compound, the “decrease in body weight (body weight gain)” value ([3]; doxorubicin 20 mg/kg i.p., surviving vehicle-treated mice, day of sacrifice minus before injection) was -4.2 ± 0.5 g, the “end-diastolic LV volume” value [4, 7] was “without significative difference” and the “end-systolic LV volume” value [4, 7] was “significant increase”. The “anterior and posterior wall thickness in systole” value ([4]; doxorubicin 20 mg/kg + vehicle vs control) was “significantly decreased”, the heart rate ([4]; doxorubicin 20 mg/kg + vehicle) was 365.1±23.9 bpm and the ejection fraction ([4]; doxorubicin 20 mg/kg vehicle group) was 38.9±1.3%. For the same compound, the “LV internal diameter in diastole” value [4, 8] was “without significative difference”, the “LV internal diameter in systole” value [4, 8] was “significantly increased” and the fractional shortening ([4]; doxorubicin-treated mice (20 mg/kg, vehicle)) was 33.5±0.4%.
